# According to US20240132431A1, “METHOD FOR ALKYLATING ACIDIC FUNCTIONAL GROUP” (Chugai Seiyaku Kabushiki Kaisha, priority 2021, published 2024):
# Biological target: T1, Bcl-2 protein (Recombinant Human Bcl-2 Protein) (Homo sapiens, UniProt P10415)
# T1 construct: purchased Novus NBP2-34889
# Experiment: Binding evaluation of mixture library compounds to Bcl-2 using AS-MS (affinity selection mass spectrometry)
# Conditions: ASMS Ratio(%)=(A−C)/B×100; for ASMS ratio (%) n = 1: replicate n = 1; for ASMS ratio (%) n = 2: replicate n = 2
# In short: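 ASMS Ratio (%) was calculated as (A−C)/B×100, where A is the protein sample after SEC, B the protein-free sample without SEC and C the protein-free sample after SEC. Each compound was at […] in a 1200-member pool with 20 μM Bcl-2, incubated 1 h at 23° C.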
# [1] = AS-MS on the mixture of 1200 library compounds
# T1 sequence (P10415 whole entry): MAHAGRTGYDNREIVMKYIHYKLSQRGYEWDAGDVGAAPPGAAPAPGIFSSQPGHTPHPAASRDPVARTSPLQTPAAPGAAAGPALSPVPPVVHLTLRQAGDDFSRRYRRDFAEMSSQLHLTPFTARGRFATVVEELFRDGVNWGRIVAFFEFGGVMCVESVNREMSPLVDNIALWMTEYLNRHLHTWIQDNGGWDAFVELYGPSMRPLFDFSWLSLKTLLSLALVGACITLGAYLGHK
Structure (SMILES),ASMS ratio (%) n = 1 [1],ASMS ratio (%) n = 2 [1],"ASMS ratio (%) n = 1 (AS-MS, mixture library, Bcl-2)","ASMS ratio (%) n = 2 (AS-MS, mixture library, Bcl-2)"
"CCOc1cccc(-c2cc(CN3CCN(c4ccc(C(=O)Nc5ccc(OC)cc5)nn4)CC3)cc(OC(C)C)c2)c1 [B1O083-01, 6-[4-[[3-(3-Ethoxyphenyl)-5-propan-2-yloxyphenyl]methyl]piperazin-1-yl]-N-(4-methoxyphenyl)pyridazine-3-carboxamide]",7.2%,1.0%,–,–
CCOc1cncc(-c2cc(CN3CCN(c4ccc(C(=O)Nc5ccc(OC)cc5)nn4)CC3)cc(OC(C)C)c2)c1 [B1O084-01],6.8%,2.0%,–,–
"CCOc1cccc(-c2cc(OC)c(CN3CCN(c4ccc(C(=O)Nc5ccc(OC)cc5)nn4)CC3)c(OC)c2)c1 [B1O085-01, 6-[4-[[4-(3-Ethoxyphenyl)-2,6-dimethoxyphenyl]methyl]piperazin-1-yl]-N-(4-methoxyphenyl)pyridazine-3-carboxamide]",−1.1%,−3.1%,–,–
"CCOc1cncc(-c2cc(OC)c(CN3CCN(c4ccc(C(=O)Nc5ccc(OC)cc5)nn4)CC3)c(OC)c2)c1 [B1O086-01, 6-[4-[[4-(5-Ethoxypyridin-3-yl)-2,6-dimethoxyphenyl]methyl]piperazin-1-yl]-N-(4-methoxyphenyl)pyridazine-3-carboxamide]",–,−0.4%,–,–
CCOc1cccc(-c2cc(CN3CCN(c4ccc(C(=O)Nc5ccc(OC)cc5)nn4)CC3)cc(C(F)(F)F)c2)c1 [B1O087-01],2.2%,−0.5%,–,–
CCOc1cncc(-c2cc(CN3CCN(c4ccc(C(=O)Nc5ccc(OC)cc5)nn4)CC3)cc(C(F)(F)F)c2)c1 [B1O088-01],3.1%,1.4%,–,–
"CCOc1cccc(-c2cc(CN3CCN(c4ccc(C(=O)Nc5ccc(OC)cc5)nn4)CC3)cc(OC(F)(F)F)c2)c1 [B1O089-01, 6-[4-[[3-(3-Ethoxyphenyl)-5-(trifluoromethoxy)phenyl]methyl]piperazin-1-yl]-N-(4-methoxyphenyl)pyridazine-3-carboxamide]",3.8%,−5.3%,–,–
"CCOc1cncc(-c2cc(CN3CCN(c4ccc(C(=O)Nc5ccc(OC)cc5)nn4)CC3)cc(OC(F)(F)F)c2)c1 [B1O090-01, 6-[4-[[3-(5-Ethoxypyridin-3-yl)-5-(trifluoromethoxy)phenyl]methyl]piperazin-1-yl]-N-(4-methoxyphenyl)pyridazine-3-carboxamide]",3.3%,−2.0%,–,–
CCOc1cccc(-c2ccc(CN3CCN(c4ccc(C(=O)Nc5ccc(OC)cc5)nn4)CC3)c3ccccc23)c1 [B1O091-01],4.5%,2.2%,–,–
"CCOc1cncc(-c2ccc(CN3CCN(c4ccc(C(=O)Nc5ccc(OC)cc5)nn4)CC3)c3ccccc23)c1 [B1O092-01, 6-[4-[[4-(5-Ethoxypyridin-3-yl)naphthalen-1-yl]methyl]piperazin-1-yl]-N-(4-methoxyphenyl)pyridazine-3-carboxamide]",6.3%,−1.4%,–,–
"CCOc1cccc(-c2csc(CN3CCN(c4ccc(C(=O)Nc5ccc(OC)cc5)nn4)CC3)c2)c1 [B1O093-01, 6-[4-[[4-(3-Ethoxyphenyl)thiophen-2-yl]methyl]piperazin-1-yl]-N-(4-methoxyphenyl)pyridazine-3-carboxamide]",0.0%,0.6%,–,–
"CCOc1cncc(-c2csc(CN3CCN(c4ccc(C(=O)Nc5ccc(OC)cc5)nn4)CC3)c2)c1 [B1O094-01, 6-[4-[[4-(5-Ethoxypyridin-3-yl)thiophen-2-yl]methyl]piperazin-1-yl]-N-(4-methoxyphenyl)pyridazine-3-carboxamide]",2.2%,−0.7%,–,–
"CCOc1cccc(C#Cc2ccccc2CN2CCN(c3ccc(C(=O)Nc4ccc(OC)cc4)nn3)CC2)c1 [B1O095-01, 6-[4-[[2-[2-(3-Ethoxyphenyl)ethynyl]phenyl]methyl]piperazin-1-yl]-N-(4-methoxyphenyl)pyridazine-3-carboxamide]",2.7%,0.0%,–,–
"CCOc1cncc(C#Cc2ccccc2CN2CCN(c3ccc(C(=O)Nc4ccc(OC)cc4)nn3)CC2)c1 [B1O096-01, 6-[4-[[2-[2-(5-Ethoxypyridin-3-yl)ethynyl]phenyl]methyl]piperazin-1-yl]-N-(4-methoxyphenyl)pyridazine-3-carboxamide]",0.0%,3.5%,–,–
"CCOc1cccc(-c2ccc(C(C)N3CCN(c4ccc(C(=O)Nc5ccc(OC)cc5)cc4)CC3)cc2)c1 (stereo not drawn) [B1O097-01, 4-[4-[1-[4-(3-Ethoxyphenyl)phenyl]ethyl]piperazin-1-yl]-N-(4-methoxyphenyl)benzamide]",4.2%,2.2%,–,–
"CCOc1cncc(-c2ccc(C(C)N3CCN(c4ccc(C(=O)Nc5ccc(OC)cc5)cc4)CC3)cc2)c1 (stereo not drawn) [B1O098-01, 4-[4-[1-[4-(5-Ethoxypyridin-3-yl)phenyl]ethyl]piperazin-1-yl]-N-(4-methoxyphenyl)benzamide]",−42.7%,−0.2%,–,–
"CCOc1cccc(-c2ccc(C(C)N3CCN(c4ccc(C(=O)Nc5ccc(OC)cc5)cc4)CC3)c(F)c2)c1 (stereo not drawn) [B1O099-01, 4-[4-[1-[4-(3-Ethoxyphenyl)-2-fluorophenyl]ethyl]piperazin-1-yl]-N-(4-methoxyphenyl)benzamide]",4.7%,1.7%,–,–
"CCOc1cncc(-c2ccc(C(C)N3CCN(c4ccc(C(=O)Nc5ccc(OC)cc5)cc4)CC3)c(F)c2)c1 (stereo not drawn) [B1O100-01, 4-[4-[1-[4-(5-Ethoxypyridin-3-yl)-2-fluorophenyl]ethyl]piperazin-1-yl]-N-(4-methoxyphenyl)benzamide]",−19.7%,11.1%,–,–
"CCOc1cccc(-c2csc(C(=O)N3CCN(c4ccc(C(=O)NS(=O)(=O)CC56CC7CC(CC(C7)C5)C6)nn4)CC3)c2)c1 [B2A001-01, N-(1-Adamantylmethylsulfonyl)-6-[4-[4-(3-ethoxyphenyl)thiophene-2-carbonyl]piperazin-1-yl]pyridazine-3-carboxamide]",–,–,0.0%,0.0%
"CCOc1cncc(-c2csc(C(=O)N3CCN(c4ccc(C(=O)NS(=O)(=O)CC56CC7CC(CC(C7)C5)C6)nn4)CC3)c2)c1 [B2A002-01, N-(1-Adamantylmethylsulfonyl)-6-[4-[4-(5-ethoxypyridin-3-yl)thiophene-2-carbonyl]piperazin-1-yl]pyridazine-3-carboxamide]",–,–,0.0%,0.0%
"CCOc1cccc(-c2ccc(C(=O)N3CCN(c4ccc(C(=O)NS(=O)(=O)CC56CC7CC(CC(C7)C5)C6)nn4)CC3)cc2C)c1 [B2A003-01, N-(1-Adamantylmethylsulfonyl)-6-[4-[4-(3-ethoxyphenyl)-3-methylbenzoyl]piperazin-1-yl]pyridazine-3-carboxamide]",–,–,21.0%,11.0%
"CCOc1cncc(-c2ccc(C(=O)N3CCN(c4ccc(C(=O)NS(=O)(=O)CC56CC7CC(CC(C7)C5)C6)nn4)CC3)cc2C)c1 [B2A004-01, N-(1-Adamantylmethylsulfonyl)-6-[4-[4-(5-ethoxypyridin-3-yl)-3-methylbenzoyl]piperazin-1-yl]pyridazine-3-carboxamide]",–,–,0.0%,0.0%
"CCOc1cccc(-c2ccc(C(=O)N3CCN(c4ccc(C(=O)NS(=O)(=O)CC56CC7CC(CC(C7)C5)C6)nn4)CC3)cc2F)c1 [B2A005-01, N-(1-Adamantylmethylsulfonyl)-6-[4-[4-(3-ethoxyphenyl)-3-fluorobenzoyl]piperazin-1-yl]pyridazine-3-carboxamide]",–,–,4.7%,12.4%
"CCOc1cncc(-c2ccc(C(=O)N3CCN(c4ccc(C(=O)NS(=O)(=O)CC56CC7CC(CC(C7)C5)C6)nn4)CC3)cc2F)c1 [B2A006-01, N-(1-Adamantylmethylsulfonyl)-6-[4-[4-(5-ethoxypyridin-3-yl)-3-fluorobenzoyl]piperazin-1-yl]pyridazine-3-carboxamide]",–,–,0.0%,0.0%
"CCOc1cccc(C#Cc2ccccc2C(=O)N2CCN(c3ccc(C(=O)NS(=O)(=O)CC45CC6CC(CC(C6)C4)C5)nn3)CC2)c1 [B2A007-01, N-(1-Adamantylmethylsulfonyl)-6-[4-[2-[2-(3-ethoxyphenyl)ethynyl]benzoyl]piperazin-1-yl]pyridazine-3-carboxamide]",–,–,–,0.0%
"CCOc1cncc(C#Cc2ccccc2C(=O)N2CCN(c3ccc(C(=O)NS(=O)(=O)CC45CC6CC(CC(C6)C4)C5)nn3)CC2)c1 [B2A008-01, N-(1-Adamantylmethylsulfonyl)-6-[4-[2-[2-(5-ethoxypyridin-3-yl)ethynyl]benzoyl]piperazin-1-yl]pyridazine-3-carboxamide]",–,–,3.1%,7.2%
"CCOc1cccc(C#Cc2cncc(C(=O)N3CCN(c4ccc(C(=O)NS(=O)(=O)CC56CC7CC(CC(C7)C5)C6)nn4)CC3)c2)c1 [B2A009-01, N-(1-Adamantylmethylsulfonyl)-6-[4-[5-[2-(3-ethoxyphenyl)ethynyl]pyridine-3-carbonyl]piperazin-1-yl]pyridazine-3-carboxamide]",–,–,3.1%,7.2%
"CCOc1cncc(C#Cc2cncc(C(=O)N3CCN(c4ccc(C(=O)NS(=O)(=O)CC56CC7CC(CC(C7)C5)C6)nn4)CC3)c2)c1 [B2A010-01, N-(1-Adamantylmethylsulfonyl)-6-[4-[5-[2-(5-ethoxypyridin-3-yl)ethynyl]pyridine-3-carbonyl]piperazin-1-yl]pyridazine-3-carboxamide]",–,–,0.0%,0.0%
